Experimental data: patent publication US4086347A, “9-[3-(4-Phenoxymethylpiperidino)-propyl]-adenines” (Boehringer Mannheim GmbH, priority 1975, dated 1978)

Tests used:
blood pressure = experiment: Blood pressure reduction in awake rats with arterial high pressure (sodium chloride / 11-deoxycorticosteroneacetate); type: in vivo, rat; settings: 4 hours after application, median
Protocol: In order to establish the effectiveness of the novel products of the invention as agents for reducing blood pressure, a series of tests as follows were carried out.
The following were the test methods used:
The test animals were rats into which arterial catheters had been implanted in a sterile operation via the arteria femoralis into the aorta. It was possible to measure the animals' blood pressure in the awake state directly in the blood with a transducer (Statham Transducer Type TP 23 D 6) via a carrier frequency measuring bridge. The animals were treated by administration of 10% common salt (sodium chloride) in their feed and, starting on the sixth week of their life, two injections per week of 5 mg at a time of 11-deoxycorticosteroneacetate per animal and thus developed an arterial high pressure in the median with values of […]. The test compounds were administered to the animals as follows: After the blood pressure control values had been determined, the animals received the test compound perorally suspended in 10 ml of 1% methyl cellulose solution in the indicated dosage and measurements were taken 4 hours after oral application of the substance.
The values set forth in the Table represent in each case the median of at least 7 individual measurements of blood pressure depression (in mm Hg) per applied substance.

[1] = system: passive cutaneous anaphylactic reaction in rats produced by injection of serum containing reaginic antibodies to egg albumin; experiment: Inhibition of passive cutaneous anaphylactic (PCA) reaction in rats induced by reaginic antibodies; type: in vivo, rat; settings: intravenously immediately before antigen
Protocol: Diethylcarbamazin, i.e., 1-diethylcarbamoyl-4-methylpiperazine was used as a comparison compound. Specifically, tests were run as follows:
Serum containing reaginic (IgE-like) antibody to egg albumin was prepared by injecting rats intramuscularly with 0.1 ml of a solution of the antigen (10 mg/ml) in saline together with 0.5 ml of Bordetella pertussis vaccine (Behring; 2 × 10^10 organisms/ml). 9-14 Days later the animals were bled from the abdominal aorta; the serum was pooled and stored at -20° C until required. The titer of the serum, i.e., the highest dilution inducing passive cutaneous anaphylaxis (PCA) in the rat following a 48-hour latent period, was between 1:8 and 1:32. For use in these experiments the serum was diluted 1:24.
The animals were anesthetized with 2,2-dichloro-1,1-difluoroethyl-methyl ether, sold under the trademark Penthrane, and were sensitized by injecting 0.1 ml of the antiserum into the shaved abdominal flanks. After 48 hours for reaginic PCA, the animals were given an intravenous injection of 1 ml of saline solution containing 0.5% by weight of egg albumin and 0.25% by weight of Evans Blue.
After having killed and exsanguinated the animals, the size in square millimeters and the intensity, in arbitary scores, of the resulting blue spot were determined. The product of these two parameters was used to determine the degree of the reaction and the degree of reaction with no active material was taken as the standard against which to measure % inhibition of the anaphylactic reaction.
6 Animals were used per dose level and for control.
The test material was injected intravenously immediately before the antigen, using a solution in water containing 0.5% HCl and 2% of dimethylformamide. For comparative purposes there was also tested diethylcarbamoyl-4-methylpiperazine sold under the tradename Diethylcarbamazin. The volumes of the injections were varied to give the indicated dosage of active material. The results obtained were as follows:
(Ovalbumin 2 × cryst. and Bord. pertussis 2 × 10^10) Active material applied intravenously immediately before antigen

Structure (SMILES) | Maximum Blood Pressure Reduction (blood pressure; 25 mg/kg perorally) | also measured
CN(C)c1ncnc2c1ncn2CCCN1CCC(COc2ccccc2)CC1 [Example 1q, 6-dimethylamino-9-[3-(4-phenoxymethyl-piperidino)-propyl]-purine] | -41 ± 7 mm Hg | 
CCN(CC)C(=O)N1CCN(C)CC1 [Diethylcarbamazin, 1-diethylcarbamoyl-4-methylpiperazine, reference compound] |  | % Inhibition PCA ([1]; 60.0 mg/kg): 58%
COc1cccc(OCC2CCN(CCCn3cnc4c(N)ncnc43)CC2)c1 [Example 1g, 9-{3-[4-(3-methoxy-phenoxymethyl)-piperidino]-propyl}-adenine] | -18 ± 4 mm Hg | 
CC(N)(Cc1ccc(O)c(O)c1)C(=O)O (stereo not drawn) [α-Methyl-Dopa, reference compound] |  | Maximum Blood Pressure Reduction (blood pressure; 150 mg/kg perorally): -33 ± 5 mm Hg
COc1ccc(OCC2CCN(CCCn3cnc4c(N)ncnc43)CC2)cc1 [Example 1h, 9-{3-[4-(4-methoxy-phenoxymethyl)-piperidino]-propyl}-adenine] | -19 ± 3 mm Hg | 
Nc1ncnc2c1ncn2CCCN1CCC(COc2ccc(F)cc2)CC1 [Example 1e, 9-{3-[4-(4-fluorophenoxymethyl)-piperidino]-propyl}-adenine] | -60 ± 7 mm Hg | % Inhibition PCA ([1]; 0.38 mg/kg): 54%
CCCNc1ncnc2c1ncn2CCCN1CCC(COc2ccc(F)cc2)CC1 [Example 1p, N^6-n-propyl-9-{3-[4-(4-fluorophenoxy-methyl)-piperidino]-propyl}-adenine] | -57 ± 8 mm Hg | 
CCNc1ncnc2c1ncn2CCCN1CCC(COc2ccc(F)cc2)CC1 [Example 1m, N^6-ethyl-9-{3-[4-(4-fluorophenoxy-methyl)-piperidino]-propyl}-adenine] | -20 ± 6 mm Hg | 
CC(C)Nc1ncnc2c1ncn2CCCN1CCC(COc2ccccc2)CC1 [Example 2a, N^6-isopropyl-9-[3-(4-phenoxymethyl-piperidino)-propyl]-adenine] | -35 ± 9 mm Hg | 
Nc1ncnc2c1ncn2CCCN1CCC(COc2ccccc2Br)CC1 [Example 1a, 9-{3-[4-(2-bromophenoxymethyl)-piperidino]-propyl}-adenine] | -47 ± 7 mm Hg | 
CCCNc1ncnc2c1ncn2CCCN1CCC(COc2ccccc2)CC1 [Example 1o, N^6-n-propyl-9-[3-(4-phenoxymethyl-piperidino)-propyl]-adenine] | -67 ± 7 mm Hg | 
CNc1ncnc2c1ncn2CCCN1CCC(COc2ccccc2)CC1 [Example 1j, N^6-methyl-9-[3-(4-phenoxymethyl-piperidino)-propyl]-adenine] |  | % Inhibition PCA ([1]; 0.38 mg/kg): 21%; % Inhibition PCA ([1]; 0.75 mg/kg): 60%
Nc1ncnc2c1ncn2CCCN1CCC(COc2ccccc2)CC1 [Example 1, 9-[3-(4-Phenoxymethylpiperidino)-propyl]-adenine] | -76 ± 5 mm Hg | % Inhibition PCA ([1]; 0.38 mg/kg): 27%; % Inhibition PCA ([1]; 0.75 mg/kg): 45%
Cc1ccccc1OCC1CCN(CCCn2cnc3c(N)ncnc32)CC1 [Example 1i, 9-{3-[4-(2-methyl-phenoxymethyl)-piperidino]-propyl}-adenine] | -55 ± 7 mm Hg | 
Nc1ncnc2c1ncn2CCCN1CCC(COc2ccc(Cl)cc2)CC1 [Example 1d, 9-{3-[4-(4-chlorophenoxymethyl)-piperidino]-propyl}-adenine] |  | Maximum Blood Pressure Reduction (blood pressure; 50 mg/kg perorally): -25 ± 7 mm Hg
OCCNc1ncnc2c1ncn2CCCN1CCC(COc2ccccc2)CC1 [Example 1n, N^6-(2-hydroxyethyl)-9-[3-(4-phenoxy-methyl-piperidino)-propyl]-adenine] | -48 ± 5 mm Hg | 
CCCCNc1ncnc2c1ncn2CCCN1CCC(COc2ccc(F)cc2)CC1 [Example 2, N^6-n-Butyl-9-{3-[4-(4-fluorophenoxymethyl)-piperidino]propyl}-adenine] | -53 ± 6 mm Hg | 
CCCCNc1ncnc2c1ncn2CCCN1CCC(COc2ccccc2)CC1 [Example 2b, N^6-n-butyl-9-[3-(4-phenoxymethyl-piperidino)-propyl]-adenine] |  | Maximum Blood Pressure Reduction (blood pressure; 50 mg/kg perorally): -35 ± 11 mm Hg
CNc1ncnc2c1ncn2CCCN1CCC(COc2ccc(F)cc2)CC1 [Example 1k, N^6-methyl-9-{3-[4-(4-fluorophenoxy-methyl)-piperidino]-propyl}-adenine] | -49 ± 8 mm Hg | % Inhibition PCA ([1]; 0.38 mg/kg): 21%
Nc1ncnc2c1ncn2CCCN1CCC(COc2ccccc2Cl)CC1 [Example 1b, 9-{3-[4-(2-chlorophenoxymethyl)-piperidino]-propy}-adenine] | -64 ± 5 mm Hg | % Inhibition PCA ([1]; 0.38 mg/kg): 32%
